Broadly, the Km is the substrate concentration at which the rate is half of its maximum.

The target in data set [1] is T1, Solute carrier organic anion transporter family member 1A1 (Mus musculus, UniProt Q9QXZ6).
T1 sequence (Q9QXZ6 whole entry): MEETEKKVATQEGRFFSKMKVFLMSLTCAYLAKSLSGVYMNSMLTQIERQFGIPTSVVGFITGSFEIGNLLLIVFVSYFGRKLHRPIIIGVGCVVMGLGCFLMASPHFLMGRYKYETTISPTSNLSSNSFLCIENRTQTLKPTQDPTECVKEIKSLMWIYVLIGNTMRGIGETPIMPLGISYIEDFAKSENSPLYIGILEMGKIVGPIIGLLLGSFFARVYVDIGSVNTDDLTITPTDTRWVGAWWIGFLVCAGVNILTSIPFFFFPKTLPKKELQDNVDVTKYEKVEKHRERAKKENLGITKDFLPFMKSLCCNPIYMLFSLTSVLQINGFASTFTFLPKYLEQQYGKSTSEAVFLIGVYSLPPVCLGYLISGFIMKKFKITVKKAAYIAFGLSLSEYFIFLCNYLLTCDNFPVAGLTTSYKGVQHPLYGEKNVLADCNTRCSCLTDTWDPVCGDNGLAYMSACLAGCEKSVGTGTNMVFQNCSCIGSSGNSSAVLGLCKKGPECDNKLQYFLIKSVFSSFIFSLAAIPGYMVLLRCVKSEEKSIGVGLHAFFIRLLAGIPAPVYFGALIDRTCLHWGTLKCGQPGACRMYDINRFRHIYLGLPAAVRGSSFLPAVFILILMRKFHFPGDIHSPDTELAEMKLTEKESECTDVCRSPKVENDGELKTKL
In words: (§1) TP_TRANSPORTER: uptake in Xenopus laevis oocytes. To be noted: oocyte. Type of data set: functional, cell-based.

Substrate in data set [2]: C[C@]12CC[C@@H]3c4ccc(OS(=O)(=O)O)cc4CC[C@H]3[C@@H]1CCC2=O
Described as §1. It counts as functional, cell-based, Oocyte.

Turning to `C[C@@H]1O[C@@H](O[C@H]2C[C@@H](O)[C@]3(CO)[C@H]4[C@H](O)C[C@]5(C)[C@@H](C6=CC(=O)OC6)CC[C@]5(O)[C@@H]4CC[C@]3(O)C2)[C@H](O)[C@H](O)[C@H]1O` [OUABAIN], in data set [1], the Activity entry is “substrate [+]”.

`O=C1OC(c2ccc(O)c(S(=O)(=O)[O-])c2)(c2ccc(O)c(S(=O)(=O)[O-])c2)c2c(Br)c(Br)c(Br)c(Br)c21.[Na+].[Na+]` [SULFOBROMOPHTHALEIN SODIUM]: in data set [1], the Activity result was “substrate [+]”.

Turning to GADOXETATE, in data set [1], the Activity result was “substrate [+]”.

B1: Solute carrier organic anion transporter family member 1A1 (Mus musculus) (protein)
chain: T1 sequence (Q9QXZ6 whole entry)
For the molecule B1, the Km in data set [2] came out at 5 µM.

(Values after ChEMBL document CHEMBL2073910, “Molecular cloning and functional characterization of the mouse organic-anion-transporting polypeptide 1 (Oatp1) and mapping of the gene to chromosome X” (Biochem J, 2000).)
